Laboratory results as given in BigSolDB 2.1.

Compound `Cn1c(=O)cc(N2CCC[C@@H](N)C2)n(Cc2ccccc2C#N)c1=O.O=C(O)c1ccccc1` has a solubility (mole fraction) (in DMF, 278.15 K) of 0.00568, a solubility (mole fraction) (in DMF, 283.15 K) of 0.00686 and a solubility (mole fraction) (in DMF, 288.15 K) of 0.00824. The solubility (mole fraction) (in DMF, 293.15 K) was 0.00984, the solubility (mole fraction) (in DMF, 298.15 K) was 0.0117 and the solubility (mole fraction) (in DMF, 303.15 K) was 0.0138. It also gave a solubility (mole fraction) (in DMF, 308.15 K) of 0.0162, a solubility (mole fraction) (in DMF, 313.15 K) of 0.019 and a solubility (mole fraction) (in DMF, 318.15 K) of 0.0222. For the same compound, the solubility (mole fraction) (in acetone, 278.15 K) was 0.00259, the solubility (mole fraction) (in acetone, 283.15 K) was 0.00293 and the solubility (mole fraction) (in acetone, 288.15 K) was 0.00331. For the same compound, the solubility (mole fraction) (in acetone, 293.15 K) was 0.00373, the solubility (mole fraction) (in acetone, 298.15 K) was 0.00419 and the solubility (mole fraction) (in acetone, 303.15 K) was 0.0047. It also gave a solubility (mole fraction) (in acetone, 308.15 K) of 0.00525, a solubility (mole fraction) (in acetone, 313.15 K) of 0.00587 and a solubility (mole fraction) (in acetone, 318.15 K) of 0.00654. For the same compound, the solubility (mole fraction) (in acetonitrile, 278.15 K) was 0.000102, the solubility (mole fraction) (in acetonitrile, 283.15 K) was 0.000145 and the solubility (mole fraction) (in acetonitrile, 288.15 K) was 0.000175. For the same compound, the solubility (mole fraction) (in acetonitrile, 293.15 K) was 0.000228, the solubility (mole fraction) (in acetonitrile, 298.15 K) was 0.000292 and the solubility (mole fraction) (in acetonitrile, 303.15 K) was 0.000368. For the same compound, the solubility (mole fraction) (in acetonitrile, 308.15 K) was 0.000475, the solubility (mole fraction) (in acetonitrile, 313.15 K) was 0.000583 and the solubility (mole fraction) (in acetonitrile, 318.15 K) was 0.000725. For the same compound, the solubility (mole fraction) (in ethanol, 278.15 K) was 0.000355, the solubility (mole fraction) (in ethanol, 283.15 K) was 0.000447 and the solubility (mole fraction) (in ethanol, 288.15 K) was 0.000554. For the same compound, the solubility (mole fraction) (in ethanol, 293.15 K) was 0.000682, the solubility (mole fraction) (in ethanol, 298.15 K) was 0.000822 and the solubility (mole fraction) (in ethanol, 303.15 K) was 0.00102. The solubility (mole fraction) (in ethanol, 308.15 K) was 0.00122, the solubility (mole fraction) (in ethanol, 313.15 K) was 0.00147 and the solubility (mole fraction) (in ethanol, 318.15 K) was 0.00176. It also gave a solubility (mole fraction) (in isopropanol, 278.15 K) of 1.9e-05, a solubility (mole fraction) (in isopropanol, 283.15 K) of 3e-05 and a solubility (mole fraction) (in isopropanol, 288.15 K) of 4.2e-05. For the same compound, the solubility (mole fraction) (in isopropanol, 293.15 K) was 6.3e-05, the solubility (mole fraction) (in isopropanol, 298.15 K) was 8.8e-05 and the solubility (mole fraction) (in isopropanol, 303.15 K) was 0.000127. For the same compound, the solubility (mole fraction) (in isopropanol, 308.15 K) was 0.000175, the solubility (mole fraction) (in isopropanol, 313.15 K) was 0.000244 and the solubility (mole fraction) (in isopropanol, 318.15 K) was 0.000334. The solubility (mole fraction) (in methanol, 278.15 K) was 0.00239, the solubility (mole fraction) (in methanol, 283.15 K) was 0.00269 and the solubility (mole fraction) (in methanol, 288.15 K) was 0.00302. For the same compound, the solubility (mole fraction) (in methanol, 293.15 K) was 0.00339, the solubility (mole fraction) (in methanol, 298.15 K) was 0.00379 and the solubility (mole fraction) (in methanol, 303.15 K) was 0.00423. It also gave a solubility (mole fraction) (in methanol, 308.15 K) of 0.00472, a solubility (mole fraction) (in methanol, 313.15 K) of 0.00525 and a solubility (mole fraction) (in methanol, 318.15 K) of 0.00583. For the same compound, the solubility (mole fraction) (in n-propanol, 278.15 K) was 6.1e-05, the solubility (mole fraction) (in n-propanol, 283.15 K) was 8.2e-05 and the solubility (mole fraction) (in n-propanol, 288.15 K) was 0.000113. It also gave a solubility (mole fraction) (in n-propanol, 293.15 K) of 0.000156, a solubility (mole fraction) (in n-propanol, 298.15 K) of 0.000209 and a solubility (mole fraction) (in n-propanol, 303.15 K) of 0.000278. It also gave a solubility (mole fraction) (in n-propanol, 308.15 K) of 0.000367, a solubility (mole fraction) (in n-propanol, 313.15 K) of 0.000477 and a solubility (mole fraction) (in n-propanol, 318.15 K) of 0.000621. For the same compound, the solubility (mole fraction) (in water, 278.15 K) was 0.000838, the solubility (mole fraction) (in water, 283.15 K) was 0.000915 and the solubility (mole fraction) (in water, 288.15 K) was 0.000999. It also gave a solubility (mole fraction) (in water, 293.15 K) of 0.00109, a solubility (mole fraction) (in water, 298.15 K) of 0.00119 and a solubility (mole fraction) (in water, 303.15 K) of 0.00129. For the same compound, the solubility (mole fraction) (in water, 308.15 K) was 0.0014, the solubility (mole fraction) (in water, 313.15 K) was 0.00153 and the solubility (mole fraction) (in water, 318.15 K) was 0.00166.
